Results as given in PubChem BioAssay (NCI).
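GI50 = concentration required for 50% inhibition of growth. TGI marks complete inhibition of growth.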

What was measured:
Assay in all cases: NCI anticancer screen, dose series, 384-well format
HCC-2998 colon = test system: HCC-2998 colon
HCT-15 colon = test system: HCT-15 colon
SK-MEL-5 melanoma = test system: SK-MEL-5 melanoma
NCI-H522 lung = test system: NCI-H522 lung
MCF7 breast = test system: MCF7 breast
A549 NSCLC = test system: A549 NSCLC
T-47D breast = test system: T-47D breast
UO-31 renal = test system: UO-31 renal
OVCAR-3 ovarian = test system: OVCAR-3 ovarian
MOLT-4 leukemia = test system: MOLT-4 leukemia
SNB-75 CNS = test system: SNB-75 CNS
SR leukemia = test system: SR leukemia
MDA-MB-231 breast = test system: MDA-MB-231 breast
HS 578T breast = test system: HS 578T breast
NCI/ADR-RES ovarian = test system: NCI/ADR-RES ovarian
UACC-257 melanoma = test system: UACC-257 melanoma
MALME-3M melanoma = test system: MALME-3M melanoma
NCI-H322M lung = test system: NCI-H322M lung
SW-620 colon = test system: SW-620 colon
NCI-H226 lung = test system: NCI-H226 lung
SN12C renal = test system: SN12C renal
LOX IMVI melanoma = test system: LOX IMVI melanoma
EKVX NSCLC = test system: EKVX NSCLC
NCI-H460 NSCLC = test system: NCI-H460 NSCLC
SNB-19 CNS = test system: SNB-19 CNS
RXF 393 renal = test system: RXF 393 renal
786-0 renal = test system: 786-0 renal
SF-539 CNS = test system: SF-539 CNS

NS(=O)(=O)OC[C@@H]1C[C@@H](n2ccc3c(NC4CCc5ccccc54)ncnc32)C[C@@H]1O (stereo not given in full)
GI50 (HCC-2998 colon): 434 nM
TGI (HCC-2998 colon): 5530 nM
GI50 (HCT-15 colon): 277 nM
TGI (HCT-15 colon): 11200 nM
GI50 (SK-MEL-5 melanoma): 34.3 nM
TGI (SK-MEL-5 melanoma): 223 nM
GI50 (NCI-H522 lung): 42.8 nM
TGI (NCI-H522 lung): 844 nM
GI50 (MCF7 breast): 32.9 nM
TGI (MCF7 breast): 424 nM
GI50 (A549 NSCLC): 405 nM
TGI (A549 NSCLC): 13800 nM
GI50 (T-47D breast): 142 nM
TGI (T-47D breast): 15800 nM
GI50 (UO-31 renal): 3180 nM
TGI (UO-31 renal): > 100000 nM
GI50 (OVCAR-3 ovarian): 43.2 nM
TGI (OVCAR-3 ovarian): 3550 nM
GI50 (MOLT-4 leukemia): 29 nM
TGI (MOLT-4 leukemia): 117 nM
GI50 (SNB-75 CNS): 178 nM
TGI (SNB-75 CNS): 627 nM
GI50 (SR leukemia): 24.3 nM
TGI (SR leukemia): 79.1 nM
GI50 (MDA-MB-231 breast): 216 nM
TGI (MDA-MB-231 breast): 2730 nM
GI50 (HS 578T breast): 186 nM
TGI (HS 578T breast): 13200 nM
GI50 (NCI/ADR-RES ovarian): 1520 nM
TGI (NCI/ADR-RES ovarian): 11300 nM
GI50 (UACC-257 melanoma): 162 nM
TGI (UACC-257 melanoma): 10500 nM
GI50 (MALME-3M melanoma): 202 nM
TGI (MALME-3M melanoma): 766 nM
GI50 (NCI-H322M lung): 333 nM
TGI (NCI-H322M lung): 11100 nM
GI50 (SW-620 colon): 602 nM
TGI (SW-620 colon): 15700 nM
GI50 (NCI-H226 lung): 112 nM
TGI (NCI-H226 lung): 804 nM
GI50 (SN12C renal): 370 nM
TGI (SN12C renal): 4360 nM
GI50 (LOX IMVI melanoma): 39.9 nM
TGI (LOX IMVI melanoma): 168 nM
GI50 (EKVX NSCLC): 2430 nM
TGI (EKVX NSCLC): > 100000 nM
GI50 (NCI-H460 NSCLC): 274 nM
TGI (NCI-H460 NSCLC): 958 nM
GI50 (SNB-19 CNS): 372 nM
TGI (SNB-19 CNS): 28500 nM
GI50 (RXF 393 renal): 60.1 nM
TGI (RXF 393 renal): 304 nM
GI50 (786-0 renal): 226 nM
TGI (786-0 renal): 1130 nM
GI50 (SF-539 CNS): 85.3 nM
